The source of these data is publication PMC9610610 (Vaccines, 2022).

This assay deals with HLA-DQ8 (Homo sapiens, UniProt P01909+P01920, A209T/A45G/C70Q/D89A/DUP78-78/E183D/E77G/F237L/G63E/H199R/I129T/K197E/L178F/L74F/L98V/Q57E/Q76R/S185I/S97I/T217I/T49S/V73L/Y58L). In words: biochemical. In kind it is binding.

Where no end group is shown, it is not given here.

By IC50 is commonly meant the point on the concentration scale where inhibition reaches its midpoint. High values mean weaker potency, low ones greater potency.

Chain of HLA-DQ8 (P01920 33-261 A45G/Y58L/E77G/D89A/H199R/T217I limits assumed, other chains not shown): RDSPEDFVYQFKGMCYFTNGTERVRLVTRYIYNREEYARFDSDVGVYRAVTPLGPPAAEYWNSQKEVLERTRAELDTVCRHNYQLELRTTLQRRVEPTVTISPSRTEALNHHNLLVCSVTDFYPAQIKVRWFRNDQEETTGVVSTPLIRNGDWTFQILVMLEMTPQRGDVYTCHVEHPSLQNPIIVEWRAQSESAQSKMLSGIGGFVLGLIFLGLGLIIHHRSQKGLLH

ADVEVYRAVTPLGPPD [DQB45–57] gave an IC50 of 0.1 µM.
